Measurements reported in patent US20230365592A1 (Agios Pharmaceuticals, Inc., priority 2022, published 2023).

biological target: T1, human PAH with the R408W mutation (Homo sapiens, UniProt P00439, R408W); experiment: Cell Based Phenylalanine Flux Assay; details: A375 cells expressing human R408W PAH; 24 hrs compound incubation; 13C-Tyrosine by LC-MS; average where tested multiple times; read-out: AC50;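 also: after compound treatment, cells received sepiapterin plus isotope-labelled Phenylalanine for 4 hours, then labelled Tyrosine in the medium was quantified, 10-point 2-fold dilution series run in duplicate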
T1 construct: expressed in transfected cells
T1 sequence (P00439 1-452 R408W): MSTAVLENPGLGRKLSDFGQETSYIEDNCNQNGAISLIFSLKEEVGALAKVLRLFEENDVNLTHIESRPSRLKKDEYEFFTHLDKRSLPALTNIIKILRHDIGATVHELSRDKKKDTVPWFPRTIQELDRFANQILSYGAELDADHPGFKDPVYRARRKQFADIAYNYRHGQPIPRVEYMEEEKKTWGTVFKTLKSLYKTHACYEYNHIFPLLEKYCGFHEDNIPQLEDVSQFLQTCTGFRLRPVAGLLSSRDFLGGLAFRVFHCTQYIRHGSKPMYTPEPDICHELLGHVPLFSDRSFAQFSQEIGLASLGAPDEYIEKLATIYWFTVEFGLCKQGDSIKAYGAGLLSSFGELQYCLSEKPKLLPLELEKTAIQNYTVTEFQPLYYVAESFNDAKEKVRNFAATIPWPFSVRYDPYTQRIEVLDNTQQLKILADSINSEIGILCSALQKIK

AC50 [µM] | SMILES
< 0.5 | O=C(c1ocnc1C1CC1)N1CCc2[nH]cnc2[C@H]1c1cc2ccccn2n1 [Example 618, (S)-(4-cyclopropyloxazol-5-yl)(4-(pyrazolo[1,5-a]pyridin-2-yl)-6,7-dihydro-1H-imidazo[4,5-c]pyridin-5(4H)-yl)methanone]
1 to 5 | O=C(c1ocnc1C1CC1)N1CCc2[nH]cnc2[C@@H]1c1cc2ccccn2n1 [Example 619, (R)-(4-cyclopropyloxazol-5-yl)(4-(pyrazolo[1,5-a]pyridin-2-yl)-6,7-dihydro-1H-imidazo[4,5-c]pyridin-5(4H)-yl)methanone]
1 to 5 | O=C(c1nnc(C2CC2)o1)N1CCc2[nH]cnc2[C@H]1c1cc2ccccn2n1 [Example 620, (S)-(5-cyclopropyl-1,3,4-oxadiazol-2-yl)(4-(pyrazolo[1,5-a]pyridin-2-yl)-6,7-dihydro-1H-imidazo[4,5-c]pyridin-5(4H)-yl)methanone]
> 5 | O=C(c1nnc(C2CC2)o1)N1CCc2[nH]cnc2[C@@H]1c1cc2ccccn2n1 [Example 621, (R)-(5-cyclopropyl-1,3,4-oxadiazol-2-yl)(4-(pyrazolo[1,5-a]pyridin-2-yl)-6,7-dihydro-1H-imidazo[4,5-c]pyridin-5(4H)-yl)methanone]
1 to 5 | O=C(c1oc(-c2ccccn2)nc1C1CC1)N1CCc2[nH]cnc2[C@@H]1c1cc2ccccn2n1 [Example 623, (R)-(4-cyclopropyl-2-(pyridin-2-yl)oxazol-5-yl)(4-(pyrazolo[1,5-a]pyridin-2-yl)-6,7-dihydro-1H-imidazo[4,5-c]pyridin-5(4H)-yl)methanone]
1 to 5 | CC(C)(O)c1nc(C2CC2)c(C(=O)N2CCc3[nH]cnc3[C@H]2c2cc3ccccn3n2)o1 [Example 624, (S)-(4-cyclopropyl-2-(2-hydroxypropan-2-yl)oxazol-5-yl)(4-(pyrazolo[1,5-a]pyridin-2-yl)-6,7-dihydro-1H-imidazo[4,5-c]pyridin-5(4H)-yl)methanone]
1 to 5 | CC(C)(O)c1nc(C2CC2)c(C(=O)N2CCc3[nH]cnc3[C@@H]2c2cc3ccccn3n2)o1 [Example 625, (R)-(4-cyclopropyl-2-(2-hydroxypropan-2-yl)oxazol-5-yl)(4-(pyrazolo[1,5-a]pyridin-2-yl)-6,7-dihydro-1H-imidazo[4,5-c]pyridin-5(4H)-yl)methanone]
1 to 5 | Cn1cc(-c2nnc(C(=O)N3CCc4[nH]cnc4[C@H]3c3cc4ccccn4n3)o2)cn1 [Example 626, (S)-(5-(1-methyl-1H-pyrazol-4-yl)-1,3,4-oxadiazol-2-yl)(4-(pyrazolo[1,5-a]pyridin-2-yl)-6,7-dihydro-1H-imidazo[4,5-c]pyridin-5(4H)-yl)methanone]
< 0.5 | CC(C)(O)c1nc(C(F)(F)F)c(C(=O)N2CCc3[nH]cnc3[C@H]2c2cc3ccccn3n2)o1 [Example 628, (S)-(2-(2-hydroxypropan-2-yl)-4-(trifluoromethyl)oxazol-5-yl)(4-(pyrazolo[1,5-a]pyridin-2-yl)-6,7-dihydro-1H-imidazo[4,5-c)pyridin-5(4H)-yl)methanone]
1 to 5 | CC(C)(O)c1nc(C(F)(F)F)c(C(=O)N2CCc3[nH]cnc3[C@@H]2c2cc3ccccn3n2)o1 [Example 629, (R)-(2-(2-hydroxypropan-2-yl)-4-(trifluoromethyl)oxazol-5-yl)(4-(pyrazolo[1,5-a]pyridin-2-yl)-6,7-dihydro-1H-imidazo[4,5-c]pyridin-5(4H)-yl)methanone]
< 0.5 | O=C(c1ocnc1C(F)F)N1CCc2[nH]cnc2[C@H]1c1cc2ccccn2n1 [Example 630, (S)-(4-(difluoromethyl)oxazol-5-yl)(4-(pyrazolo[1,5-a]pyridin-2-yl)-6,7-dihydro-1H-imidazo[4,5-c]pyridin-5(4H)-yl)methanone]
1 to 5 | O=C(c1ocnc1C(F)F)N1CCc2[nH]cnc2[C@@H]1c1cc2ccccn2n1 [Example 631, (R)-(4-(difluoromethyl)oxazol-5-yl)(4-(pyrazolo[1,5-a]pyridin-2-yl)-6,7-dihydro-1H-imidazo[4,5-c]pyridin-5(4H)-yl)methanone]
< 0.5 | O=C(c1oc(C2CC2)nc1C(F)F)N1CCc2[nH]cnc2[C@H]1c1cc2ccccn2n1 [Example 632, (S)-(2-cyclopropyl-4-(difluoromethyl)oxazol-5-yl)(4-(pyrazolo[1,5-a]pyridin-2-yl)-6,7-dihydro-1H-imidazo[4,5-c]pyridin-5(4H)-yl)methanone]
> 5 | O=C(c1oc(C2CC2)nc1C(F)F)N1CCc2[nH]cnc2[C@@H]1c1cc2ccccn2n1 [Example 633, (R)-(2-cyclopropyl-4-(difluoromethyl)oxazol-5-yl)(4-(pyrazolo[1,5-a]pyridin-2-yl)-6,7-dihydro-1H-imidazo[4,5-c]pyridin-5(4H)-yl)methanone]
< 0.5 | O=C(CC1(O)CCC1)N1CCc2[nH]cnc2[C@H]1c1cc2ccccn2n1 [Example 634, (S)-2-(1-hydroxycyclobutyl)-1-(4-(pyrazolo[1,5-a]pyridin-2-yl)-6,7-dihydro-1H-imidazo[4,5-c]pyridin-5(4H)-yl)ethanone]
1 to 5 | O=C(CC1(O)CCC1)N1CCc2[nH]cnc2[C@@H]1c1cc2ccccn2n1 [Example 635, (R)-2-(1-hydroxycyclobutyl)-1-(4-(pyrazolo[1,5-a]pyridin-2-yl)-6,7-dihydro-1H-imidazo[4,5-c]pyridin-5(4H)-yl)ethanone]
< 0.5 | O=C(N1CCc2[nH]cnc2[C@H]1c1cc2ccccn2n1)C(F)(F)C1(O)CCC1 [Example 638, (S)-2,2-difluoro-2-(1-hydroxycyclobutyl)-1-(4-(pyrazolo[1,5-a]pyridin-2-yl)-6,7-dihydro-1H-imidazo[4,5-c]pyridin-5(4H)-yl)ethanone]
1 to 5 | O=C(N1CCc2[nH]cnc2[C@@H]1c1cc2ccccn2n1)C(F)(F)C1(O)CCC1 [Example 639, (R)-2,2-difluoro-2-(1-hydroxycyclobutyl)-1-(4-(pyrazolo[1,5-a]pyridin-2-yl)-6,7-dihydro-1H-imidazo[4,5-c]pyridin-5(4H)-yl)ethanone]
0.5 to 1 | O=C(c1nnc(-c2ccc(C(F)(F)F)cc2)o1)N1CCc2[nH]cnc2[C@H]1c1cc2ccccn2n1 [Example 642, (S)-(4-(pyrazolo[1,5-a]pyridin-2-yl)-6,7-dihydro-1H-imidazo[4,5-c]pyridin-5(4H)-yl)(5-(4-(trifluoromethyl)phenyl)-1,3,4-oxadiazol-2-yl)methanone]
> 5 | O=C(c1nnc(-c2ccc(C(F)(F)F)cc2)o1)N1CCc2[nH]cnc2[C@@H]1c1cc2ccccn2n1 [Example 643, (R)-(4-(pyrazolo[1,5-a]pyridin-2-yl)-6,7-dihydro-1H-imidazo[4,5-c]pyridin-5(4H)-yl)(5-(4-(trifluoromethyl)phenyl)-1,3,4-oxadiazol-2-yl)methanone]
< 0.5 | O=C(c1oc(-c2ccccn2)nc1C(F)F)N1CCc2[nH]cnc2[C@H]1c1cc2ccccn2n1 [Example 644, (S)-(4-(difluoromethyl)-2-(pyridin-2-yl)oxazol-5-yl)(4-(pyrazolo[1,5-a]pyridin-2-yl)-6,7-dihydro-1H-imidazo[4,5-c]pyridin-5(4H)-yl)methanone]
1 to 5 | O=C(c1oc(-c2ccccn2)nc1C(F)F)N1CCc2[nH]cnc2[C@@H]1c1cc2ccccn2n1 [Example 645, (R)-(4-(difluoromethyl)-2-(pyridin-2-yl)oxazol-5-yl)(4-(pyrazolo[1,5-a]pyridin-2-yl)-6,7-dihydro-1H-imidazo[4,5-c]pyridin-5(4H)-yl)methanone]
1 to 5 | O=C(c1nnc(-c2cnn(CC(F)(F)F)c2)o1)N1CCc2[nH]cnc2[C@H]1c1cc2ccccn2n1 [Example 646, (S)-(4-(pyrazolo[1,5-a]pyridin-2-yl)-6,7-dihydro-1H-imidazo[4,5-c]pyridin-5(4H)-yl)(5-(1-(2,2,2-trifluoroethyl)-1H-pyrazol-4-yl)-1,3,4-oxadiazol-2-yl)methanone]
> 5 | O=C(c1nnc(-c2cnn(CC(F)(F)F)c2)o1)N1CCc2[nH]cnc2[C@@H]1c1cc2ccccn2n1 [Example 647, (R)-(4-(pyrazolo[1,5-a]pyridin-2-yl)-6,7-dihydro-1H-imidazo[4,5-c]pyridin-5(4H)-yl)(5-(1-(2,2,2-trifluoroethyl)-1H-pyrazol-4-yl)-1,3,4-oxadiazol-2-yl)methanone]
< 0.5 | O=C(c1nnc(-c2ccc(F)c(F)c2)o1)N1CCc2[nH]cnc2[C@H]1c1cc2ccccn2n1 [Example 648, (S)-(5-(3,4-difluorophenyl)-1,3,4-oxadiazol-2-yl)(4-(pyrazolo[1,5-a]pyridin-2-yl)-6,7-dihydro-1H-imidazo[4,5-c]pyridin-5(4H)-yl)methanone]
> 5 | O=C(c1nnc(-c2ccc(F)c(F)c2)o1)N1CCc2[nH]cnc2[C@@H]1c1cc2ccccn2n1 [Example 649, (R)-(5-(3,4-difluorophenyl)-1,3,4-oxadiazol-2-yl)(4-(pyrazolo[1,5-a]pyridin-2-yl)-6,7-dihydro-1H-imidazo[4,5-c]pyridin-5(4H)-yl)methanone]
1 to 5 | O=C(c1nnc(-c2cnn(C(F)F)c2)o1)N1CCc2[nH]cnc2[C@H]1c1cc2ccccn2n1 [Example 650, (S)-(5-(1-(difluoromethyl)-1H-pyrazol-4-yl)-1,3,4-oxadiazol-2-yl)(4-(pyrazolo[1,5-a]pyridin-2-yl)-6,7-dihydro-1H-imidazo[4,5-c]pyridin-5(4H)-yl)methanone]
